Test results from patent US20160271126A1, “PHARMACEUTICAL COMPOSITION” (Hoffmann-La Roche Inc., priority 2013, published 2016).

Tests used:
Solubility of bitopertin = format: physicochemical
Excerpt: (§1) Being a BCS 2 molecule (according to the Biopharmaceutics Classification System, wherein the molecule has high permeability and low solubility), the API particles size distribution has been identified as a major critical quality attribute of the drug substance. […] Thus, micronized API was selected for development of a suitable formulation.

[1] = Biopharmaceutics Classification System class; format: physicochemical; parameters: key: 2: the molecule has high permeability and low solubility
Excerpt: as §1

Structure (SMILES): C[C@H](Oc1ccc(S(C)(=O)=O)cc1C(=O)N1CCN(c2ncc(C(F)(F)F)cc2F)CC1)C(F)(F)F [Bitopertin]
- solubility in aqueous buffers and in water (Solubility of bitopertin; aqueous buffers and water): practically insoluble
- solubility in polar organic solvents (Solubility of bitopertin; polar organic solvents): freely soluble
- BCS class (Biopharmaceutics Classification System) [1]: 2
